Activity calls are given as the source filed them. No cut-off for these calls is given here.

Series [1] is described as follows: Elimination half life in fasted ICR mouse at 2 mg/kg, iv measured for 24 hrs. The series is classed as ADME, organism-based. The following applies: in vivo, read-out: beta t1/2 (converted).
Series [2] in a line: Clearance in fasted ICR mouse at 2 mg/kg, iv measured for 24 hrs. To be noted: in vivo. In kind it is ADME, organism-based.
Series [3] is described as follows: Elimination half life in fasted ICR mouse at 5 mg/kg, IG measured for 24 hrs. The following applies: in vivo, po, read-out: beta t1/2 (converted). In kind it is ADME, organism-based.
Series [4] can be described thus: Metabolic stability in human liver microsomes assessed as half life at 1 uM incubated for 60 mins in presence of NADPH by LC-MS/MS analysis. In kind it is ADME, Microsome. On the technique in general: Liver microsomes are vesicles of endoplasmic reticulum, rich in cytochrome P450 enzymes.
The nature of series [5]: Metabolic stability in dog liver microsomes assessed as half life at 1 uM incubated for 60 mins in presence of NADPH by LC-MS/MS analysis. The series is classed as ADME, Canis lupus familiaris, Microsome.
A short description of series [6]: Metabolic stability in monkey liver microsomes assessed as half life at 1 uM incubated for 60 mins in presence of NADPH by LC-MS/MS analysis. The series is classed as ADME, Macaca mulatta, Microsome. To be noted: rhesus monkey.
Series [7] is described as follows: Metabolic stability in monkey liver microsomes assessed as intrinsic clearance at 1 uM incubated for 60 mins in presence of NADPH by LC-MS/MS analysis. In kind it is ADME, Macaca mulatta, Microsome. The following applies: rhesus monkey, read-out: CLH.
Series [8] can be described thus: Drug concentration in Sprague-Dawley rat plasma at 5 mg/kg, ip measured after 15 mins by LC-MS/MS analysis. The series is classed as ADME, organism-based.
Series [9] in a line: Drug concentration in Sprague-Dawley rat plasma at 5 mg/kg, ip measured after 60 mins by LC-MS/MS analysis. In kind it is ADME, organism-based.
The nature of series [10]: Ratio of drug concentration in Sprague-Dawley brain to plasma at 5 mg/kg, ip measured after 120 mins by LC-MS/MS analysis. In kind it is ADME, organism-based. The following applies: rat, read-out: BPR.
Series [11] addresses CYP2D6 (Homo sapiens, UniProt P10635). Kind of series: Inhibition of CYP2D6 in human liver microsomes using propranolol as substrate at 10 uM incubated for 10 mins in presence of NADPH by LC-MS/MS analysis relative to control. In kind it is ADME, Microsome. The following applies: probe propranolol.
Series [12] deals with CYP2C19 (Homo sapiens, UniProt P33261). Briefly: Inhibition of CYP2C19 in human liver microsomes using omeprazole as substrate at 10 uM incubated for 45 mins in presence of NADPH by LC-MS/MS analysis relative to control. In kind it is ADME, Microsome. The following applies: probe omeprazole.
The nature of series [13]: Protein binding in human plasma at 1 uM incubated for 5 hrs by LC-MS/MS based rapid equilibrium dialysis method. To be noted: read-out: PPB (converted). The series is classed as ADME, cell-free. Background: In equilibrium dialysis only unbound substance equilibrates across the membrane.
Series [14] can be described thus: Apparent permeability across apical to basolateral side in MDCKII-MDR1 cells at 10 uM incubated for 30 mins by LC-MS/MS analysis. The series is classed as ADME, cell-based, Canis lupus familiaris. The following applies: dog, MDCK-MDR1.
Series [15] relates to Mus musculus. Briefly: Anti-parkinson activity in C57BL/6 mouse model of MPTP-induced dopamine deficits assessed as increase in dopamine concentration in striatum at 1 to 3 mg/kg, ip pretreated for 30 mins followed by MPTP addition and measured after 5 days by HPLC analysis. In kind it is functional, organism-based. The following applies: dose 1-3 mg/kg, time 120.5 hrs.

Sequence of CYP2C19 (P33261 whole entry): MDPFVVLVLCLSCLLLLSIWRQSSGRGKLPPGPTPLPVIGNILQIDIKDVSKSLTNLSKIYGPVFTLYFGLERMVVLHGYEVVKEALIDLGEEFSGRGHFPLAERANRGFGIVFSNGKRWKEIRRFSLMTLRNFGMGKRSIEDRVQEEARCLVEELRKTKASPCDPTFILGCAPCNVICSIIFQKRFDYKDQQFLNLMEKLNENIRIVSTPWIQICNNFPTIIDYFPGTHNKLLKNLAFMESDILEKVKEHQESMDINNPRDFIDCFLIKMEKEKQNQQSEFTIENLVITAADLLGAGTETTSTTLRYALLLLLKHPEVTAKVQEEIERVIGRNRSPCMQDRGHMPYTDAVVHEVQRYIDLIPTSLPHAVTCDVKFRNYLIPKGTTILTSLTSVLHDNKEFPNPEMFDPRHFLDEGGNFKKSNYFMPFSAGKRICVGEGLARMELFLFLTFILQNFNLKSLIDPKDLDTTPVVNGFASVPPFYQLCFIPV
Sequence of CYP2D6 (P10635 whole entry): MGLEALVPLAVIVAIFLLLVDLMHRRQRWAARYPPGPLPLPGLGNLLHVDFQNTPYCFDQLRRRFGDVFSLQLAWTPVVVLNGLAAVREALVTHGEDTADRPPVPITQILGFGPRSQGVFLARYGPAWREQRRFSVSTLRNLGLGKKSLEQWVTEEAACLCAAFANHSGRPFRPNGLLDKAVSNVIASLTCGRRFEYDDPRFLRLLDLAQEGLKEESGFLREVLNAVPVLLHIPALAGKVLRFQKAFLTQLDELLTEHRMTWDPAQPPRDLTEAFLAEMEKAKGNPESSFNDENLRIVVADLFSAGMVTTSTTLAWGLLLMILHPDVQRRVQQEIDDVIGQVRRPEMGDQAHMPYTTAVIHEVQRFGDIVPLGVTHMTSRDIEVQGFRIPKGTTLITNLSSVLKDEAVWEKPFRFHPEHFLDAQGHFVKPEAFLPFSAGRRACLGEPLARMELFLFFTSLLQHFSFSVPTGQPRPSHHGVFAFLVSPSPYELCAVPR

What is called clearance is the rate of elimination divided by the concentration. In general, inhibition refers to the drop in the measured response relative to a control, in per cent. The term Papp A→B denotes how fast a substance crosses the layer from the apical side. Turning to `NC(=O)[C@@H]1C[C@H](F)CN1Cc1ccc2oc(-c3ccc(F)cc3)cc2c1`, the half-life was 3.37 h in [1] and 3.8 h in series [3]. In series [2], the clearance is 11 mL/min/kg. Further, the half-life at 1 µM in [4] is 10.4 h; in [5], 2.45 h; in series [6], 5.63 h. The CLint scaled at 1 µM in series [7] amounted to 4.1 mL/min/kg. In series [8], this molecule registered a concentration at 0.25 h of 536 ng/mL. In addition, in [9], the concentration at 1 h was 540 ng/mL. Further, the Kp at 2 h in [10] came to 15.5. Besides, the inhibition at 10 min, 10 µM in series [11] was -3.37%. The inhibition at 0.75 h, 10 µM in series [12] came to 75.9%. For the same molecule, the fraction unbound at 5 h, 1 µM in series [13] is 0.0058. Moreover, the Papp A→B at 0.5 h, 10 µM in [14] is 8.78 ×10⁻⁶ cm/s. Further, the outcome in series [15] was Active.

Values taken from ChEMBL document CHEMBL5346941, “Design, synthesis and evaluation of novel monoamine oxidase B (MAO-B) inhibitors with improved pharmacokinetic properties for Parkinson's disease” (Eur J Med Chem, 2023).
